Test results taken from patent US4327178A, “Urinary kallikrein assay: specific substrates and assay method” (University of Miami, priority 1981, dated 1982).
Values belong to the molecule of their own block, whether it stands above or below them. Where a SMILES comes first, the peptide text is derived from it. The star is where a group is joined. (3H)benzylamide = C-terminal benzylamide carrying tritium label; (3H)anilide = C-terminal anilide carrying tritium label; pNA = O=[N+]([O-])c1ccc(N*)cc1; Bz = O=C(c1ccccc1)*; X2 = Ic1cccc(CN*)c1; X3 = Ic1ccc(CN*)cc1; X1 = Ic1ccc(N*)cc1

What was measured:
Format in all cases: biochemical
[1] = biological target: purified urinary kallikrein (Homo sapiens, UniProt P06870); assay: Urinary kallikrein-catalyzed hydrolysis of N-alpha-acylated substrates relative to non-acylated compounds; conditions: approximately 20 nM substrate, 60 ng purified urinary kallikrein, 100 μl 0.1 M tris HCl pH 9.5, 37° C., 15 minutes; conditions optimized for non-acylated substrate
human urinary kallikrein [2] = biological target: T1, human urinary kallikrein (Homo sapiens, UniProt P06870); assay: Assay of human urinary kallikrein: suitability as substrate (in words)
T1 construct: dialyzed or gel-filtered human urine in the general A1 assay
Description: Human urine is treated to remove low molecular weight impurities, either by overnight dialysis against 0.9%(w/v) NaCl or by gel filtration. A typical reaction mixture may contain 50 μl dialyzed urine and 0.1 μCi of substrate at a final concentration of 20 ng/ml buffered with 0.1 M tris-HCl, pH 9.5, in a total reaction volume of 100 μl. Reaction tubes are incubated at 37° C. for two hours. Variations of incubation time and temperature for the purpose of increasing or decreasing the amount of product formed are known expedients within the scope of ordinary skill in the art. Reactions may be stopped by any technique which causes rapid termination of the enzyme-catalyzed reaction without significant alteration of the product concentration. Use of an excess volume of base, e.g., 1.0 ml of 0.1 NaOH, is preferred. The product is separated from the reaction mixture by extraction with a measured volume of an aprotic solvent such as toluene or ether, or by other suitable means such as ion-exchange chromatography. Where solvent extraction is employed, an aliquot of the solvent (containing reaction product) may be sampled for radioactivity counting. Scintillation counting is preferred for counting tritium, and use of an extracting solvent such as toluene or ether permits direct transfer of a solvent aliquot to the scintillation fluid.
A standard curve may be constructed substituting purified kallikrein for dialyzed urine. A unit of enzyme is defined herein as that amount required to hydrolyze substrate at an initial rate of 1% per minute at 37° C. The foregoing definition is applicable where the concentration of substrate is well below Km such that hydrolysis is first order with respect to substrate concentration. The number of kallikrein units/ml of dialyzed urine is given by [formula] where 1.0 ml of solvent is used for the extraction and an aliquot of 0.5 ml is taken for counting. The blank c.p.m. value is determined in a control reaction lacking enzyme but otherwise treated identically.

Trypsin = assay: Reaction specificity: hydrolysis by serine proteases; conditions: 20 nM substrate, 0.1 M tris-HCl, 37° C., 15 minutes
Description: (§1) The hydrolysis of H-ProPheArg-[^3 H]benzylamide by a series of serine proteases was measured. Reactions were carried out using 20 nM substrate in 0.1 M tris-HCl buffer, pH 7.5 or pH 9.5, at 37° C. for 15 minutes in the presence of varied amounts of enzyme. The results are shown in Table 2, expressed as the amount of enzyme necessary to hydrolyze 10% of the substrate under the given conditions. "No hydrolysis" is used to denote no measureable reaction with a maximum of 0.5 mg/ml enzyme.

Urokinase = assay: as above; conditions: printed on the pH 9.5 line (pH 7.5 line blank); No hydrolysis = no measureable reaction with a maximum of 0.5 mg/ml enzyme; 20 nM substrate, 37° C., 15 minutes
Description: as §1

Thrombin = assay: as above; conditions: printed on the pH 9.5 line (pH 7.5 line blank); No hydrolysis = no measureable reaction with a maximum of 0.5 mg/ml enzyme; 20 nM substrate, 37° C., 15 minutes
Description: as §1

human urinary kallikrein [3] = biological target: T1, human urinary kallikrein; assay: as above; conditions: 20 nM substrate, 0.1 M tris-HCl, 37° C., 15 minutes
Description: as §1

α-Chymotrypsin = assay: as above; conditions: printed on the pH 9.5 line (pH 7.5 line blank); No hydrolysis = no measureable reaction with a maximum of 0.5 mg/ml enzyme; 20 nM substrate, 37° C., 15 minutes
Description: as §1

Plasmin = assay: as above; conditions: 20 nM substrate, 0.1 M tris-HCl, 37° C., 15 minutes
Description: as §1

human urinary kallikrein [4] = biological target: T1, human urinary kallikrein; assay: Km and Vmax of substrates with purified human urinary kallikrein (Lineweaver-Burk double reciprocal plot)
Description: The double reciprocal plot method of H. Lineweaver and D. Burk (J.Am.Chem.Soc. 56, 658 (1934)) was used to estimate Km and Vmax for these substrates. Purified human urinary kallikrein prepared as described by Oza, N. B. and Ryan, J., supra, was used in this study. Reactions were conducted at 37° C. for 15 minutes with 62.5 ng of enzyme and the indicated amount of substrate, in 0.05 M tris-HCl pH 9.5. Reactions were terminated by the addition of a nine-fold excess of 0.1 N NaOH. The ^3 H-labeled product was separated from substrate by extraction with an equal volume (1 ml) of toluene. A 0.5 ml aliquot of the toluene phase was transferred to a scintillation vial containing a toluene-based scintillation fluid and counted. Results for H-ProPheArg-[^3 H]-benzylamide are shown in FIG. 1, and for H-ProPheArg-[^3 H]anilide in FIG. 2. The units of l/v were nmol^-1 min. Units of l/S were μmole^-1.liter.

human urinary kallikrein [5] = biological target: T1, human urinary kallikrein; assay: Relative activity of halogenated (4-iodoanilide) substrates, spectrophotometric standard assay; conditions: 150 nmol substrate in 0.7 ml 0.05 tris-HCl, pH 8.1, 37° C.
Description: Unlabeled halogenated 4-iodoanilide substrates, prepared essentially as described in Example 5, were compared with respect to reaction rate with human urinary kallikrein in a standard assay. Each substrate, 150 nmol, was incubated with purified human urinary kallikrein in 0.7 ml of 0.05 tris-HCl, pH 8.1 at 37° C. At timed intervals, 100 μl of reaction mixture was added to 1.0 ml of 0.1 N NaOH. The resulting solution was extracted with CHCl3 and the organic phase was evaporated to dryness. The residue was dissolved in buffer and examined spectrophotometrically in the 240-300 nm range, where a difference spectrum between substrate and product is measureable. The results are shown in Table 1, with rates of hydrolysis expressed as nmol/min/mg enzyme.

[6] = 62.5 ng purified enzyme, 0.05 M tris-HCl pH 9.5, 37° C., 15 minutes

T1 sequence (P06870 25-262): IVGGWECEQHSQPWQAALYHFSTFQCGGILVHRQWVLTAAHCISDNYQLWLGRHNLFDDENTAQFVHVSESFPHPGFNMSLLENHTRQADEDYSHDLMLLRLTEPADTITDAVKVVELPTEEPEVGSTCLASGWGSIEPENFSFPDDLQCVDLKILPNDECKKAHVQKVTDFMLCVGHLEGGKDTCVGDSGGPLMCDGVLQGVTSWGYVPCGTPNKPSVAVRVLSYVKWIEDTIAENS
Chain of purified urinary kallikrein (P06870 25-262): as above

activity as substrate for human urinary kallikrein (in words) (human urinary kallikrein [2]): suitable substrates
Molecule: N=C(N)NCCC[C@H](NC(=O)[C@H](Cc1ccccc1)NC(=O)[C@@H]1CCCN1C(=O)[C@H](CO)NC(=O)[C@@H](N)Cc1ccccc1)C(=O)NCc1ccc(I)cc1 [H-PheSerProPheArg-4-iodobenzylamide] (H-FSPFR-X3)

Amount of Enzyme Required for 10% Hydrolysis (Trypsin; pH 7.5): 400 ng | Amount of Enzyme Required for 10% Hydrolysis (Trypsin; pH 9.5): 1,030 ng | Amount of Enzyme Required for 10% Hydrolysis (Urokinase): No hydrolysis | Amount of Enzyme Required for 10% Hydrolysis (Thrombin): No hydrolysis | Amount of Enzyme Required for 10% Hydrolysis (human urinary kallikrein [3]; pH 7.5): 265 ng | Amount of Enzyme Required for 10% Hydrolysis (human urinary kallikrein [3]; pH 9.5): 45 ng | Amount of Enzyme Required for 10% Hydrolysis (as enzyme concentration, in brackets) (human urinary kallikrein [3]; pH 9.5): 10 nM | Amount of Enzyme Required for 10% Hydrolysis (α-Chymotrypsin): No hydrolysis | Amount of Enzyme Required for 10% Hydrolysis (Plasmin; pH 7.5): 17,200 ng | Amount of Enzyme Required for 10% Hydrolysis (Plasmin; pH 9.5): 30,600 ng | Km (human urinary kallikrein [4]; [6]): 3 µM | Vmax (human urinary kallikrein [4]; [6]): 0.88 mmol/min/mg protein
Molecule: [3H]c1cccc(CNC(=O)[C@H](CCCNC(=N)N)NC(=O)[C@H](Cc2ccccc2)NC(=O)[C@@H]2CCCN2)c1 [H-ProPheArg-[^3 H]benzylamide, H-ProPheArg-[^3 H] benzylamide]

activity as substrate for human urinary kallikrein (in words) (human urinary kallikrein [2]): suitable substrates
Molecule: N=C(N)NCCC[C@H](NC(=O)[C@H](Cc1ccccc1)NC(=O)[C@@H]1CCCN1C(=O)[C@@H](N)CO)C(=O)NCc1cccc(I)c1 [H-SerProPheArg-3-iodobenzylamide] (H-SPFR-X2)

activity as substrate for human urinary kallikrein (in words) (human urinary kallikrein [2]): suitable substrates
Molecule: N=C(N)NCCC[C@H](NC(=O)[C@H](Cc1ccccc1)NC(=O)[C@@H]1CCCN1C(=O)[C@@H](N)CO)C(=O)NCc1ccc(I)cc1 [H-SerProPheArg-4-iodobenzylamide] (H-SPFR-X3)

rate of hydrolysis relative to the non-acylated compounds [1]: generally similar rates
Molecule: [3H]c1cccc(CNC(=O)[C@H](CCCNC(=N)N)NC(=O)[C@H](Cc2ccccc2)NC(=O)[C@@H]2CCCN2C(C)=O)c1 [acetylated]

rate of hydrolysis relative to the non-acylated compounds [1]: generally similar rates
Molecule: [3H]c1cccc(CNC(=O)[C@H](CCCNC(=N)N)NC(=O)[C@H](Cc2ccccc2)NC(=O)[C@@H]2CCCN2C(=O)C2CCCC2)c1 [cyclopentylcarbonylated]

rate of hydrolysis relative to the non-acylated compounds [1]: 1/10
Molecule: [3H]c1cccc(CNC(=O)[C@H](CCCNC(=N)N)NC(=O)[C@H](Cc2ccccc2)NC(=O)[C@@H]2CCCN2C(=O)CCC(=O)O)c1 [succinyl derivative, Succinyl-ProPheArg-[^3 H]benzylamide]

activity as substrate for human urinary kallikrein (in words) (human urinary kallikrein [2]): substrates
Molecule: H-PheSerProPheArg-[^3 H] anilide (H-FSPFR-{(3H)anilide})

activity as substrate for human urinary kallikrein (in words) (human urinary kallikrein [2]): excellent substrate | Vmax (human urinary kallikrein [4]; [6]): 0.39 mmol/min/mg protein | Km (human urinary kallikrein [4]; 62.5 ng purified enzyme, 0.05 M tris-HCl pH 9.5, 37° C., 15 minutes, listed as H-ProPheArg-[^3 H]-anilide): 0.8 µM | Km (human urinary kallikrein [4]; 62.5 ng purified enzyme, 0.05 M tris-HCl pH 9.5, 37° C., 15 minutes, listed as ProPheArg-[^3 H] anilide): ~0.8 µM | Vmax (human urinary kallikrein [4]; as summarised in the detailed description): approximately 0.39 mmol/min/mg
Molecule: H-ProPheArg-[^3 H]anilide

activity as substrate for human urinary kallikrein (in words) (human urinary kallikrein [2]): suitable substrates
Molecule: H-SerProPheArg-[^3 H]-benzylamide (H-SPFR-{(3H)benzylamide})

activity as substrate for human urinary kallikrein (in words) (human urinary kallikrein [2]): substrates
Molecule: H-SerProPheArg-[^3 H]anilide (H-SPFR-{(3H)anilide})

More lines, now with the values behind:

Molecule: [3H]c1cccc(CNC(=O)[C@H](CCCNC(=N)N)NC(=O)[C@H](Cc2ccccc2)NC(=O)[C@@H]2CCCN2C(=O)c2ccccc2)c1 [Benzoyl-ProPheArg-[^3 H]benzylamide]
rate of hydrolysis relative to the non-acylated compounds [1]: about 1/2

Molecule: N=C(N)NCCC[C@H](NC(=O)[C@H](Cc1ccccc1)NC(=O)[C@@H]1CCCN1C(=O)[C@H](CO)NC(=O)[C@@H](N)Cc1ccccc1)C(=O)NCc1cccc(I)c1 [H-PheSerProPheArg-3-iodobenzylamide] (H-FSPFR-X2)
activity as substrate for human urinary kallikrein (in words) (human urinary kallikrein [2]): suitable substrates

Molecule: N=C(N)NCCC[C@H](NC(=O)[C@@H](N)Cc1ccccc1)C(=O)Nc1ccc(I)cc1 [Phe--Arg--4-iodoanilide]
Rate of Hydrolysis (human urinary kallikrein [5]): Nil

Molecule: N=C(N)NCCC[C@H](NC(=O)[C@H](Cc1ccccc1)NC(=O)[C@@H]1CCCN1C(=O)[C@H](CO)NC(=O)[C@@H](N)Cc1ccccc1)C(=O)Nc1ccc(I)cc1 [Phe--Ser--Pro--Phe--Arg--4-iodoanilide] (H-FSPFR-X1)
Rate of Hydrolysis (human urinary kallikrein [5]): 1.12 nmol/min/mg enzyme

Molecule: N=C(N)NCCC[C@H](NC(=O)[C@H](Cc1ccccc1)NC(=O)[C@@H]1CCCN1)C(=O)Nc1ccc(I)cc1 [Pro--Phe--Arg--4-iodoanilide]
Rate of Hydrolysis (human urinary kallikrein [5]): 0.73 nmol/min/mg enzyme

Molecule: N=C(N)NCCC[C@H](NC(=O)[C@H](Cc1ccccc1)NC(=O)[C@@H]1CCCN1C(=O)[C@@H](N)CO)C(=O)Nc1ccc(I)cc1 [Ser--Pro--Phe--Arg--4-iodoanilide] (H-SPFR-X1)
Rate of Hydrolysis (human urinary kallikrein [5]): 0.62 nmol/min/mg enzyme

Molecule: N=C(N)NCCC[C@H](NC(=O)[C@H](Cc1ccccc1)NC(=O)[C@@H]1CCCN1C(=O)c1ccccc1)C(=O)Nc1ccc([N+](=O)[O-])cc1 [benzoyl-ProPheArg-p-nitroanilide, reference compound] (Bz-Pro-Phe-Arg-pNA)
activity as substrate for human urinary kallikrein (in words) (human urinary kallikrein [2]): inactive

Molecule: H-PheSerProPheArg-[^3 H]benzylamide (H-FSPFR-{(3H)benzylamide})
activity as substrate for human urinary kallikrein (in words) (human urinary kallikrein [2]): suitable substrates
